In assay [1] the target is T1, Mitogen-activated protein kinase kinase kinase 5 (Homo sapiens) (UniProt Q99683).
T1 sequence (whole entry): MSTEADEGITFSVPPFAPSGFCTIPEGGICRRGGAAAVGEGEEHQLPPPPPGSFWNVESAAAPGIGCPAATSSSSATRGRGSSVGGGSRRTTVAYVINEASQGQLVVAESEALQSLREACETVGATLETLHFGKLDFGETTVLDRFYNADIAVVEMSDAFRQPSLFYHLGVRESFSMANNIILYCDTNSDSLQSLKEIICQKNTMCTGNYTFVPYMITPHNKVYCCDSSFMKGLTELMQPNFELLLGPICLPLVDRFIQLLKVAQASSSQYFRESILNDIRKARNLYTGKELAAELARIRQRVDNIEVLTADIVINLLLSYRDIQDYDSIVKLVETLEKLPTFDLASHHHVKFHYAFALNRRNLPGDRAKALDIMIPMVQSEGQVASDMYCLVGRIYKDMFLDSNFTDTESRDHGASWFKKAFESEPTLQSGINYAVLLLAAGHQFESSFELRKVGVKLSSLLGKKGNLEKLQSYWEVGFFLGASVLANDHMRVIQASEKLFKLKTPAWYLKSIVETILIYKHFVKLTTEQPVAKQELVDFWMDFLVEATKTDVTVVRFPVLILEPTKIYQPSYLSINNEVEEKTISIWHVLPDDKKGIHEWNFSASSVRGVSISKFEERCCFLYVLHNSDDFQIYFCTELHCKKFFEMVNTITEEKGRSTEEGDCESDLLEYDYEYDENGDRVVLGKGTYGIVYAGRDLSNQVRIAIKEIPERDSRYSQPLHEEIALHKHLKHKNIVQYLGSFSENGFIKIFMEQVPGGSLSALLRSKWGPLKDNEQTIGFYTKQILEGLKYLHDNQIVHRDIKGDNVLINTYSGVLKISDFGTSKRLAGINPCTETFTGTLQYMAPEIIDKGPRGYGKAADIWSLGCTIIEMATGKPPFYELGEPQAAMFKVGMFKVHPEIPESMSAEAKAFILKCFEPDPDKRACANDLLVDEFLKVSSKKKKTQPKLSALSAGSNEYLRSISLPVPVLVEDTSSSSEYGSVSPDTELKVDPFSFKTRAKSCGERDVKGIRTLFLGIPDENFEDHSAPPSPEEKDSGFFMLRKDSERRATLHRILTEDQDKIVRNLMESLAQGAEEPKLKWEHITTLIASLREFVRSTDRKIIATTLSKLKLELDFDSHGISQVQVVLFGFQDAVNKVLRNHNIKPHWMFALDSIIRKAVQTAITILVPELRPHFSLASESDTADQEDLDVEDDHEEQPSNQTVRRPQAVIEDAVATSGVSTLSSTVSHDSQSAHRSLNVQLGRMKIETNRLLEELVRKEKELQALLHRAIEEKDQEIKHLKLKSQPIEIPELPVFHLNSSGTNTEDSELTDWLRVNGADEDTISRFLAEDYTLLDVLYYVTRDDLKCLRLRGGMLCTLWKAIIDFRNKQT
The assay can be described thus: Selectivity interaction (KinomeScan (DiscoverX)) EUB0000607a MAP3K5. The conditions noted are these: at 10 µM.

Assay [2] has as its target Protein arginine N-methyltransferase 5 (Homo sapiens, UniProt O14744). The assay can be described thus: Selectivity interaction (Methyltransferase screen (Scintillation proximity assays)) EUB0000255b PRMT5. Background: In a scintillation proximity assay essentially only radioactivity close to the scintillant gives light.
Assay [3] deals with LIM domain kinase 2 (Homo sapiens) (UniProt P53671). The assay can be described thus: Selectivity interaction (KinomeScan (DiscoverX)) EUB0001079a LIMK2. The conditions noted are these: at 1 µM.
Sequence of LIM domain kinase 2 (Homo sapiens) (P53671 whole entry, looked up, the tested form may be a part): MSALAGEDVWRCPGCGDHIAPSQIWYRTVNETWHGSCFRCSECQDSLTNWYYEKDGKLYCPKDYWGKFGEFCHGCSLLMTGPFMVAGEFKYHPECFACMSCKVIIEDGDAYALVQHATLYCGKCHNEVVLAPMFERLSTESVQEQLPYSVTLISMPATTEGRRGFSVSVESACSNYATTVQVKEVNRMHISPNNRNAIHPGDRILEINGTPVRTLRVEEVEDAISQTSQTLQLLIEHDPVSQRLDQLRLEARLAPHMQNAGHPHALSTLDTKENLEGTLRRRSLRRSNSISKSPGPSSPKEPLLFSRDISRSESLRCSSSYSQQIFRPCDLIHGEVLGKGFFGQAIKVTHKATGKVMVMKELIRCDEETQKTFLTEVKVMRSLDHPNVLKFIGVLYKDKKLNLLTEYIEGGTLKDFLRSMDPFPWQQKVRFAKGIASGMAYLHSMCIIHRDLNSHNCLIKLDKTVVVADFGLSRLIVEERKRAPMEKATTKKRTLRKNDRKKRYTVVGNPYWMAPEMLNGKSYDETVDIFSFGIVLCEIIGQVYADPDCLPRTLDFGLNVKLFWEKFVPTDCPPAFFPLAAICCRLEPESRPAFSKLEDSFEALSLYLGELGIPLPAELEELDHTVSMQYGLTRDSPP
Assay [4] can be described thus: Selectivity interaction (Ex-vivo activation of CD20+ B cells in cynomolgus (anti-IgM/IL-4 stimulated pAKT)) EUB0000877a PIK3CD.
Assay [5] addresses T2, Dual specificity mitogen-activated protein kinase kinase 4 (Homo sapiens) (UniProt P45985).
T2 sequence (whole entry): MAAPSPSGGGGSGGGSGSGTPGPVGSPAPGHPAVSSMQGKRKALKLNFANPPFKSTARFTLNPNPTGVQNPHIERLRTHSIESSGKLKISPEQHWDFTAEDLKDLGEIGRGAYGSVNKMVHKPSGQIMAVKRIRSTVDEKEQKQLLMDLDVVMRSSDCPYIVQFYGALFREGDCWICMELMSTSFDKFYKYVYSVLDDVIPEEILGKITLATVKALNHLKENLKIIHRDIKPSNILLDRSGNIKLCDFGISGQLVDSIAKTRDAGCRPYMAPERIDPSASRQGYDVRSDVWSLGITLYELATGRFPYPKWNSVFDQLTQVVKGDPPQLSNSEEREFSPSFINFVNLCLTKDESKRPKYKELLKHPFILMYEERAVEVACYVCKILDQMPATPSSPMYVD
The assay can be described thus: Selectivity interaction (ActivX KiNativ screen (kinase selectivity in THP-1 cell lysates)) EUB0000639a MAP2K4. It counts as subcellular. The conditions noted are these: lysate.

Assay [6] concerns the target Ribosomal protein S6 kinase alpha-1 (Homo sapiens, UniProt Q15418). The assay can be described thus: Selectivity interaction (ActivX KiNativ screen (kinase selectivity in THP-1 cell lysates)) EUB0000639a RPS6KA1. It counts as subcellular. The conditions noted are these: lysate, at 1 µM.
Assay [7] has as its target Microtubule-associated serine/threonine-protein kinase 1 (Homo sapiens) (UniProt Q9Y2H9). The assay can be described thus: Selectivity interaction (KinomeScan (DiscoverX)) EUB0000092b MAST1. To be noted: at 10 µM.
The target in assay [8] is Myosin light chain kinase, smooth muscle (Homo sapiens, UniProt Q15746). The assay can be described thus: Selectivity interaction (KinomeScan (DiscoverX)) EUB0000618a MYLK. To be noted: at 10 µM.
The target of assay [9] is T3, Serine/threonine-protein kinase RIO1 (Homo sapiens) (UniProt Q9BRS2).
T3 sequence (whole entry): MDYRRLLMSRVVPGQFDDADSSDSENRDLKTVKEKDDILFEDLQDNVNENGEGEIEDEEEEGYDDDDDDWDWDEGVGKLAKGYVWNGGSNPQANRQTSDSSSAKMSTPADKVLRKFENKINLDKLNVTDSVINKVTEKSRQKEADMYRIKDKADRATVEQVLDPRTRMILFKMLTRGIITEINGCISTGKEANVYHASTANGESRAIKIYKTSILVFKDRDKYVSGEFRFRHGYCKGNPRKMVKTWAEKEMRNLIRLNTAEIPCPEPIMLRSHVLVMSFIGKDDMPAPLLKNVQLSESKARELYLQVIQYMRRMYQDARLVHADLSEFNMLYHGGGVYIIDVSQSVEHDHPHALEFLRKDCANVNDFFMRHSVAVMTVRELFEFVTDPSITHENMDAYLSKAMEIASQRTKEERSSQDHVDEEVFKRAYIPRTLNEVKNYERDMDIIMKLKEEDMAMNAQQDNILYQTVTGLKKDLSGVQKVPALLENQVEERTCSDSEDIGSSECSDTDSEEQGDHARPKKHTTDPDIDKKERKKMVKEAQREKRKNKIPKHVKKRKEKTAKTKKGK
The assay can be described thus: Selectivity interaction (KinomeScan (DiscoverX)) EUB0000618a RIOK1. To be noted: at 10 µM.

Molecules are shown by their SMILES. pEC50: −log10 of the molar value. Some results are limits rather than exact numbers.

Sequence of Protein arginine N-methyltransferase 5 (O14744 whole entry, the tested form may be a part): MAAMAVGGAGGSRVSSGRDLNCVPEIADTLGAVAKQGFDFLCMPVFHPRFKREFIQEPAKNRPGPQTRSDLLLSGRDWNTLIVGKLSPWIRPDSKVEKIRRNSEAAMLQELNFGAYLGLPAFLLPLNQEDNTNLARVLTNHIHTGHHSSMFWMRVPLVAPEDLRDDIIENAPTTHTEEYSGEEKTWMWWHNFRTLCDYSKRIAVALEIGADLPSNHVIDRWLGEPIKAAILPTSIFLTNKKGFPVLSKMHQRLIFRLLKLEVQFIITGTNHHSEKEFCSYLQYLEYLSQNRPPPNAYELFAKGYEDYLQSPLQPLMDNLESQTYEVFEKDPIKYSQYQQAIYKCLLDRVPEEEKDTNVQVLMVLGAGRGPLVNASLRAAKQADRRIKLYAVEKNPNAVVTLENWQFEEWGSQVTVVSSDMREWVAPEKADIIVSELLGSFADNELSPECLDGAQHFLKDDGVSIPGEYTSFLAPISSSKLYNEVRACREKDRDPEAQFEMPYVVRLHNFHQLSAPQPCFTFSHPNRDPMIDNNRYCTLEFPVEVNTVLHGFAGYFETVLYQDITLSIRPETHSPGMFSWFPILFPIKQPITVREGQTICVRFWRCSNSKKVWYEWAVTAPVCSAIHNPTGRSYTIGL
Sequence of Microtubule-associated serine/threonine-protein kinase 1 (Homo sapiens) (Q9Y2H9 whole entry, looked up): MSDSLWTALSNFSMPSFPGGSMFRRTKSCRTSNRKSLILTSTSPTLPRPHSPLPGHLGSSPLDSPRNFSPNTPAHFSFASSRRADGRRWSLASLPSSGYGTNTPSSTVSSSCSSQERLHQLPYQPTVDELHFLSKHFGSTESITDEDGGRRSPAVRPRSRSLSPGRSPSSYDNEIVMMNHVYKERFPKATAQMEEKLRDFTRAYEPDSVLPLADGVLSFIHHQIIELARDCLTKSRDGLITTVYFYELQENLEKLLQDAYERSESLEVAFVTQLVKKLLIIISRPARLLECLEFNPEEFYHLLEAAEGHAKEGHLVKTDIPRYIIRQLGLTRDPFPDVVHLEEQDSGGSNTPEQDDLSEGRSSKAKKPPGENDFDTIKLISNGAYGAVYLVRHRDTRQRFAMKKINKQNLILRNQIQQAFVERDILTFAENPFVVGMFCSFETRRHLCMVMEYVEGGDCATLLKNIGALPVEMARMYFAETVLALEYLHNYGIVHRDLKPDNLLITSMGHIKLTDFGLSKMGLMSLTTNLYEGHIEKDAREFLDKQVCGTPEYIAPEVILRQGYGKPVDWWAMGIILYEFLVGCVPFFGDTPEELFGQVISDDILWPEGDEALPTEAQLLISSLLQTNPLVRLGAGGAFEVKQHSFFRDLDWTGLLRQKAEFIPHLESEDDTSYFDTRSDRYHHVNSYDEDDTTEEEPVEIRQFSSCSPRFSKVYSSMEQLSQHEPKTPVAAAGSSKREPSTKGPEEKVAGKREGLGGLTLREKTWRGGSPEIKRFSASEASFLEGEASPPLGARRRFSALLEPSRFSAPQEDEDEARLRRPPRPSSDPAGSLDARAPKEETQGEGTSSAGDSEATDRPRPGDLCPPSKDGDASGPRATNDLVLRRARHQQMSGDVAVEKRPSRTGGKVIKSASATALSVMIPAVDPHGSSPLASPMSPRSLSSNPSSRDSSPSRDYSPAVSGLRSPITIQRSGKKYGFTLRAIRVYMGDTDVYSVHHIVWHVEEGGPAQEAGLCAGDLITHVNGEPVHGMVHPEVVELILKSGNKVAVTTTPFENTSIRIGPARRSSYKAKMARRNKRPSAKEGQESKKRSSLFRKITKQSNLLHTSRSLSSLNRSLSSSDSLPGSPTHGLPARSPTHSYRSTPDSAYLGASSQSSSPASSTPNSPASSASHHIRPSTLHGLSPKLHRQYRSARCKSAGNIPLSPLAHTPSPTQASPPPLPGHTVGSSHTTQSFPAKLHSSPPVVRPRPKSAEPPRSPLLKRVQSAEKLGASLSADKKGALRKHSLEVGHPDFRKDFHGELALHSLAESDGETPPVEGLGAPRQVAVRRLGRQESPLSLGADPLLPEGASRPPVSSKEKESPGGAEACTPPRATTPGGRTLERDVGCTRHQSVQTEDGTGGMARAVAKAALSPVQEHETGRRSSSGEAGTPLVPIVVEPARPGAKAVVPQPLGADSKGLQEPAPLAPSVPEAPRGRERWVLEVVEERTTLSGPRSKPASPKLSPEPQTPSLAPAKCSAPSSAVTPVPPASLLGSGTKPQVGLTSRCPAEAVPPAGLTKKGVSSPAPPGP
Sequence of Ribosomal protein S6 kinase alpha-1 (Q15418 whole entry): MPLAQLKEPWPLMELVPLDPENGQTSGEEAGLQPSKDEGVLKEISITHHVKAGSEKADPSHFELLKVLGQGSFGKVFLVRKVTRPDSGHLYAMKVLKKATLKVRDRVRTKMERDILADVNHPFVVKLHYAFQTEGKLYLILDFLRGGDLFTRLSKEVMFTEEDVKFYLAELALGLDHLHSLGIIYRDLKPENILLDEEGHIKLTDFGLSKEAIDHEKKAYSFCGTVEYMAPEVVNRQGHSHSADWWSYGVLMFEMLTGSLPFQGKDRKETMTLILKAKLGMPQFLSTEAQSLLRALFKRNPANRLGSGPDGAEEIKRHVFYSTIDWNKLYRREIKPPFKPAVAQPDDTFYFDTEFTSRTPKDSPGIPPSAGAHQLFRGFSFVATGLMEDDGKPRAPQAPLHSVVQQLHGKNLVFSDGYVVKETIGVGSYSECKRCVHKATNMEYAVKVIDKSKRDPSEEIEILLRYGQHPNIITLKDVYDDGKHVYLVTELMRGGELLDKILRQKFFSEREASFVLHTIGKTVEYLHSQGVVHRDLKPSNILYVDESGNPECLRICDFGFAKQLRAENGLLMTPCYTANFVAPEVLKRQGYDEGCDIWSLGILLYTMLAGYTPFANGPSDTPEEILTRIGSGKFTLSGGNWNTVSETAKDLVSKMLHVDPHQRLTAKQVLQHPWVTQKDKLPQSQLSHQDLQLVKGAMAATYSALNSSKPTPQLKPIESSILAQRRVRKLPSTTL

As to `CNC(=O)Nc1ccc(-c2nc(N3CC4CCC(C3)O4)c3cnn(C4CCC5(CC4)OCCO5)c3n2)cc1`, in assay [1], the % of control stood at 85%.
Turning to `COCCN1CCC(c2cc(CN(C)C(=O)c3cccc(Oc4ccccc4)c3)ccn2)CC1`, the % activity in assay [2] (at 1 µM) is greater than 95%; in [2] (at 10 µM), greater than 90%.
`Nc1cnc(N2CCc3cc(S(=O)(=O)Nc4c(F)cc(Cl)cc4F)cc(N4CCCC4=O)c32)nc1` [TP-020n] displayed a % of control in [3] of 100%.
Regarding `CCC(=O)N1CC[C@H](Nc2ncnc3c2CN(c2cnc(OC)c(C(F)(F)F)c2)CC3)C1` [LENIOLISIB], the negative logarithm of the EC50 (pEC50) (commonly −log10 of the EC50, conventionally taken in molar units) in [4] is 6.85.
On to `CC[C@@H]1[C@H](F)C(=O)N[C@@H]1COc1nccc2cc(C(N)=O)c(OC)cc12` [ZIMLOVISERTIB], for which the % of inhibition in assay [5] (at 0.01 µM) is -9.4%; in assay [5] (at 0.04 µM), -17.8%; in assay [5] (at 0.2 µM), 0.7%; in assay [5] (at 1 µM), 17.6%; in assay [5] (at 5 µM), 56.2%; in assay [6], -3.5%.
`CCC(=O)N1CCN(c2ccc(-n3c(=O)ccc4cnc5ccc(-c6cnc7ccccc7c6)cc5c43)cc2C(F)(F)F)CC1`: in assay [7], the % of control turned out to be 93%.
As for `O[C@H]1CC[C@H](Nc2ncc3nc(Nc4c(F)cc(F)cc4F)n([C@H]4CCOC4)c3n2)CC1`, the % of control in [8] came out at 94%; in assay [9], 100%.

The record behind these values is ChEMBL document CHEMBL5465560, “Selectivity Literature for EUbOPEN Chemogenomic Library” (2024).
